Assay results published in PubChem BioAssay (NCI).
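Cells were grown in 96-well plates and exposed to each compound for 48 hours at five concentrations; endpoints were interpolated linearly between bracketing concentrations, or set to the highest concentration if not reached. GI50 = concentration required for 50% inhibition of growth. TGI: concentration producing complete growth inhibition.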

Tests used:
Assay in all cases: NCI tumour cell line growth inhibition, 48 h
[1] = test system: MOLT-4 leukemia
[2] = test system: UO-31 renal
[3] = test system: SK-MEL-5 melanoma
[4] = test system: HCT-116 colon
[5] = test system: MCF7 breast
[6] = test system: MDA-MB-435
[7] = test system: SNB-75 CNS
[8] = test system: EKVX NSCLC
[9] = test system: SR leukemia
[10] = test system: KM12 colon
[11] = test system: HT29 colon
[12] = test system: OVCAR-8 ovarian
[13] = test system: SF-268 CNS
[14] = test system: SNB-19 CNS
[15] = test system: HOP-62 NSCLC
[16] = test system: BT-549 breast
[17] = test system: RXF 393 renal
[18] = test system: NCI-H226 lung
[19] = test system: A549 NSCLC
[20] = test system: UACC-257 melanoma
[21] = test system: TK-10 renal
[22] = test system: LOX IMVI melanoma
[23] = test system: K-562 leukemia
[24] = test system: CAKI-1 renal
[25] = test system: NCI/ADR-RES ovarian
[26] = test system: SW-620 colon
[27] = test system: MDA-MB-231 breast
[28] = test system: COLO 205 colon
[29] = test system: SK-MEL-2 melanoma
[30] = test system: UACC-62 melanoma
[31] = test system: SK-MEL-28 melanoma
[32] = test system: HL-60(TB) leukemia
[33] = test system: DU-145 prostate
[34] = test system: IGROV1 ovarian
[35] = test system: U251 CNS
[36] = test system: ACHN renal
[37] = test system: HS 578T breast
[38] = test system: HCT-15 colon
[39] = test system: OVCAR-5 ovarian
[40] = test system: NCI-H23 lung
[41] = test system: NCI-H522 lung
[42] = test system: SN12C renal
[43] = test system: SF-295 CNS
[44] = test system: RPMI-8226 leukemia
[45] = test system: PC-3 prostate
[46] = test system: NCI-H460 lung
[47] = test system: SF-539 CNS
[48] = test system: 786-0 renal

Compound `CN(C)/[N+]([O-])=N/Oc1cc(Nc2ccc(C(=O)O)cc2)c([N+](=O)[O-])cc1[N+](=O)[O-]` has a GI50 [1] of 53.3 µM, a TGI [1] of over 100 µM and a GI50 [2] of 25.6 µM. It also gave a TGI [2] of 67.3 µM, a GI50 [3] of 20.2 µM and a TGI [3] of 41.3 µM. For the same compound, the GI50 [4] was 20.9 µM, the TGI [4] was 41.6 µM and the GI50 [5] was 25.2 µM. It also gave a TGI [5] of 69.7 µM, a GI50 [6] of 19.8 µM and a TGI [6] of 39.2 µM. It also gave a GI50 [7] of 25.7 µM, a TGI [7] of 52.1 µM and a GI50 [8] of 20.1 µM. It also gave a TGI [8] of 46.8 µM, a GI50 [9] of 51.3 µM and a TGI [9] of over 100 µM. For the same compound, the GI50 [10] was 14.6 µM, the TGI [10] was 30.8 µM and the GI50 [11] was 44.2 µM. For the same compound, the TGI [11] was over 100 µM, the GI50 [12] was 22.1 µM and the TGI [12] was 52.1 µM. It also gave a GI50 [13] of 20.4 µM, a TGI [13] of 40.1 µM and a GI50 [14] of 18.2 µM. It also gave a TGI [14] of 35.3 µM, a GI50 [15] of 18 µM and a TGI [15] of 35 µM. It also gave a GI50 [16] of 18.5 µM, a TGI [16] of 34.6 µM and a GI50 [17] of 22.8 µM. It also gave a TGI [17] of 47.8 µM, a GI50 [18] of 27.4 µM and a TGI [18] of 70.4 µM. The GI50 [19] was 75 µM, the TGI [19] was over 100 µM and the GI50 [20] was 19.4 µM. It also gave a TGI [20] of 35.5 µM, a GI50 [21] of 18.9 µM and a TGI [21] of 72.7 µM. For the same compound, the GI50 [22] was 19 µM, the TGI [22] was 33.6 µM and the GI50 [23] was 38.2 µM. The TGI [23] was over 100 µM, the GI50 [24] was 22.1 µM and the TGI [24] was 51.7 µM. It also gave a GI50 [25] of 29.8 µM, a TGI [25] of over 100 µM and a GI50 [26] of 45.4 µM. For the same compound, the TGI [26] was over 100 µM, the GI50 [27] was 17 µM and the TGI [27] was 31.3 µM. The GI50 [28] was 28.2 µM, the TGI [28] was 63.5 µM and the GI50 [29] was 17.1 µM. For the same compound, the TGI [29] was 39 µM, the GI50 [30] was 17.9 µM and the TGI [30] was 32.2 µM. The GI50 [31] was 30.7 µM, the TGI [31] was 57.5 µM and the GI50 [32] was 18.5 µM. It also gave a TGI [32] of 58.8 µM, a GI50 [33] of 18 µM and a TGI [33] of 35.7 µM. The GI50 [34] was 14.9 µM, the TGI [34] was 34.4 µM and the GI50 [35] was 19.3 µM. It also gave a TGI [35] of 33.5 µM, a GI50 [36] of 26.7 µM and a TGI [36] of 62.4 µM. The GI50 [37] was 21.7 µM, the TGI [37] was 57.3 µM and the GI50 [38] was 19.6 µM. It also gave a TGI [38] of 36.4 µM, a GI50 [39] of 38.5 µM and a TGI [39] of over 100 µM. For the same compound, the GI50 [40] was 20.3 µM, the TGI [40] was 40.9 µM and the GI50 [41] was 28.5 µM. It also gave a TGI [41] of over 100 µM, a GI50 [42] of 18.6 µM and a TGI [42] of 33.6 µM. It also gave a GI50 [43] of 16.9 µM, a TGI [43] of 34 µM and a GI50 [44] of 23.6 µM. For the same compound, the TGI [44] was over 100 µM, the GI50 [45] was 26.5 µM and the TGI [45] was 53.1 µM. For the same compound, the GI50 [46] was 32.2 µM, the TGI [46] was over 100 µM and the GI50 [47] was 23.5 µM. It also gave a TGI [47] of 53.6 µM, a GI50 [48] of 22.2 µM and a TGI [48] of 55.3 µM.
